The results in this text go back to patent US20260138976A1 (Hoffmann-La Roche Inc., priority 2022, published 2026).

In test [1] the test system is primary human T-cells. Nature of the test: IL2 secretion measurements (24 h, CD3-stimulated T-cells, PBS counter screen). It is filed as cell-based. Conditions: for Emax IL2 (% activation): CD3 condition, normalised to DMSO (neutral) and 20 μM reference compound A1 = 100%; for EC50: CD3-stimulated primary human T-cells, IL2 secretion, fitted sigmoidal curve, read-out: Tcell IL2 CD3 EC50. An outline of the steps:
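IL-2 secretion was measured by ProQuantum or ELISA after 24 h culture of expanded human T-cells with compound, on CD3-antibody-coated plates or PBS counter-screen plates. Dosing used 5–6 points from a 20 or 10 μM final top at 3.333-fold steps in 0.2% DMSO. EC50/Emax were scaled between DMSO and 20 μM reference A1.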

Test [2] relates to primary human T-cells. Nature of the test: Proliferation assay (5 days, CellTiter-Glo, CD3-stimulated T-cells). Type of test: cell-based. As to conditions: for Emax proliferation (% activation): CD3 condition, normalised to DMSO (neutral) and 20 μM reference compound A1 = 100%; for EC50: Homo sapiens, T-cell, 120 h, CD3-stimulated primary human T-cells, 5 days, CellTiter-Glo, fitted sigmoidal curve, read-out: Tcell Proliferation CD3 EC50. Summed up:
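Proliferation read-out: ATP luminescence (CellTiter-Glo 2.0) at day 5 in expanded primary human T-cells on CD3 antibody-coated plates, with PBS-only plates as a counter screen. Compounds in 5–6 pt series (factor 3.333, top 20 or 10 μM final). Values are normalized to DMSO (neutral) and 20 μM reference A1 (100%), from sigmoidal fits.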
In general terms: In ATP-based viability assays light output follows the ATP content of the culture.

Structures are written as SMILES.

Take `Cn1nc(C(F)(F)F)cc1-c1ccc(CN2C(=O)[C@@H](N)CS(=O)(=O)c3ccc(-c4nnc(C(C)(C)C)o4)cc32)cc1` [Example 92]: in test [1], the “Emax IL2 (% activation)” value is reported as 157 % activation. Also, the EC50 in test [1] (Homo sapiens, T-cell) came to 2 µM. Further, in test [2], the “Emax proliferation (% activation)” value is on record as 170 % activation and the EC50 is 0.835 µM.
For `C[C@@](N)(c1nnc(-c2ccc3c(c2)N(Cc2ccc(-c4ccc(C(F)(F)F)cn4)cc2)C(=O)[C@@H](N)CS3(=O)=O)o1)C(F)(F)F` [Example 154, (3R)-3-amino-7-[5-[(1R)-1-amino-2,2,2-trifluoro-1-methyl-ethyl]-1,3,4-oxadiazol-2-yl]-1,1-dioxo-5-[[4-[5-(trifluoromethyl)-2-pyridyl]phenyl]methyl]-2,3-dihydro-1λ^6,5-benzothiazepin-4-one], in that order: 127 % activation, 0.991 µM, 151 % activation and 0.984 µM.
Turning to `CC(C)(C#N)c1nnc(-c2ccc3c(c2)N(Cc2ccc(-c4noc(C(F)(F)F)n4)cc2)C(=O)[C@@H](N)CS3(=O)=O)o1` [Example 38, 2-[5-[(3R)-3-amino-1,1,4-trioxo-5-[[4-[5-(trifluoromethyl)-1,2,4-oxadiazol-3-yl]phenyl]methyl]-2,3-dihydro-1λ^6,5-benzothiazepin-7-yl]-1,3,4-oxadiazol-2-yl]-2-methyl-propanenitrile], the “Emax IL2 (% activation)” value in test [1] is recorded as 311 % activation. The EC50 in test [1] (Homo sapiens, T-cell) was found to be 3.11 µM; in test [2], 0.64 µM. Moreover, in test [2], the “Emax proliferation (% activation)” value amounted to 97 % activation.
Taken in the same sequence, the figures for `N[C@H]1CS(=O)(=O)c2ccc(-c3nnc(N4CCC(F)(F)CC4)o3)cc2N(Cc2ccc(-c3noc(C(F)(F)F)n3)cc2)C1=O` [Example 68, (3R)-3-amino-7-[5-(4,4-difluoro-1-piperidyl)-1,3,4-oxadiazol-2-yl]-1,1-dioxo-5-[[4-[5-(trifluoromethyl)-1,2,4-oxadiazol-3-yl]phenyl]methyl]-2,3-dihydro-1λ^6,5-benzothiazepin-4-one] were 351 % activation, 1.16 µM, 0.0261 µM and 104 % activation.
Regarding `COC(=O)N1CC2CC(c3nnc(-c4ccc5c(c4)N(Cc4ccc(-c6noc(C(F)(F)F)n6)cc4)C(=O)[C@@H](N)CS5(=O)=O)o3)(C2)C1` [Example 158, methyl 1-[5-[(3R)-3-amino-1,1,4-trioxo-5-[[4-[5-(trifluoromethyl)-1,2,4-oxadiazol-3-yl]phenyl]methyl]-2,3-dihydro-1λ^6,5-benzothiazepin-7-yl]-1,3,4-oxadiazol-2-yl]-3-azabicyclo[3.1.1]heptane-3-carboxylate], in test [1], the EC50 turned out to be 1.34 µM and the “Emax IL2 (% activation)” value is on record as 345 % activation. For the same molecule, in test [2], the “Emax proliferation (% activation)” value came to 150 % activation and the EC50 is 0.304 µM.
With `Cc1nc(-c2ccc(CN3C(=O)[C@@H](N)CS(=O)(=O)c4ccc(-c5nnc(C(C)(C)C#N)o5)cc43)cc2)ccc1C(F)(F)F` [Example 114], in test [1], the “Emax IL2 (% activation)” value came out at 48 % activation. Further, the EC50 in test [1] (Homo sapiens, T-cell) is 1.05 µM. Further, in test [2], the “Emax proliferation (% activation)” value came out at 78 % activation and the EC50 was determined as 7.42 µM.
For `CC(C)(C#N)c1nnc(-c2ccc3c(c2)N(Cc2ccc(-c4cc(OC(F)F)ccn4)cc2)C(=O)[C@@H](N)CS3(=O)=O)o1` [Example 110, 2-[5-[(3R)-3-amino-5-[[4-[4-(difluoromethoxy)-2-pyridyl]phenyl]methyl]-1,1,4-trioxo-2,3-dihydro-1λ^6,5-benzothiazepin-7-yl]-1,3,4-oxadiazol-2-yl]-2-methyl-propanenitrile], in that order: 85 % activation, 4.11 µM, 85 % activation and 5.78 µM.
In the case of `Cn1nc(C(F)(F)F)cc1-c1ccc(CN2C(=O)[C@@H](N)CS(=O)(=O)c3ccc(-c4nnc(C(C)(C)C#N)o4)cc32)cc1` [Example 107, 2-[5-[(3R)-3-amino-5-[[4-[2-methyl-5-(trifluoromethyl)pyrazol-3-yl]phenyl]methyl]-1,1,4-trioxo-2,3-dihydro-1λ^6,5-benzothiazepin-7-yl]-1,3,4-oxadiazol-2-yl]-2-methyl-propanenitrile], in test [1], the “Emax IL2 (% activation)” value came to 241 % activation. Also, in test [1] (Homo sapiens, T-cell), the EC50 came to 1.39 µM. Further, in test [2], the “Emax proliferation (% activation)” value was found to be 165 % activation and the EC50 stood at 2.16 µM.
Taken in the same sequence, the figures for `COc1ccc(-c2ccc(CN3C(=O)[C@@H](N)CS(=O)(=O)c4ccc(-c5nnc(C6(N)CCCCC6)o5)cc43)cc2)cc1` [Example 43, (3R)-3-amino-7-[5-(1-aminocyclohexyl)-1,3,4-oxadiazol-2-yl]-5-[[4-(4-methoxyphenyl)phenyl]methyl]-1,1-dioxo-2,3-dihydro-1λ^6,5-benzothiazepin-4-one] were 89 % activation, 0.771 µM, 64 % activation and 0.284 µM.
For `CC(C)(C#N)c1nnc(-c2ccc3c(c2)N(Cc2ccc(-n4nnc(C(F)(F)F)n4)cc2)C(=O)[C@@H](N)CS3(=O)=O)o1` [Example 120, 2-[5-[(3R)-3-amino-1,1,4-trioxo-5-[[4-[5-(trifluoromethyl)tetrazol-2-yl]phenyl]methyl]-2,3-dihydro-1λ^6,5-benzothiazepin-7-yl]-1,3,4-oxadiazol-2-yl]-2-methyl-propanenitrile], in that order: 135 % activation, 1.33 µM, 205 % activation and 1.52 µM.
For `CCOC(F)(c1nnc(-c2ccc3c(c2)N(Cc2ccc(-c4noc(C(F)(F)F)n4)cc2)C(=O)[C@@H](N)CS3(=O)=O)o1)C(F)(F)F` (stereo partly drawn) [Example 64, (3R)-3-amino-7-[5-(1-ethoxy-1,2,2,2-tetrafluoro-ethyl)-1,3,4-oxadiazol-2-yl]-1,1-dioxo-5-[[4-[5-(trifluoromethyl)-1,2,4-oxadiazol-3-yl]phenyl]methyl]-2,3-dihydro-1λ^6,5-benzothiazepin-4-one], in that order: 543 % activation, 0.889 µM, 132 % activation and 0.0208 µM.
On to `CC(C)(CC#N)c1nnc(-c2ccc3c(c2)N(Cc2ccc(-c4ccc(OC(F)(F)F)cn4)cc2)C(=O)[C@@H](N)CS3(=O)=O)o1` [Example 175, 3-[5-[(3R)-3-amino-1,1,4-trioxo-5-[[4-[5-(trifluoromethoxy)-2-pyridyl]phenyl]methyl]-2,3-dihydro-1λ^6,5-benzothiazepin-7-yl]-1,3,4-oxadiazol-2-yl]-3-methyl-butanenitrile], for which the “Emax IL2 (% activation)” value in test [1] was found to be 52 % activation. Further, the EC50 in test [1] (Homo sapiens, T-cell) was greater than 10 µM. Further, in test [2], the “Emax proliferation (% activation)” value was 105 % activation and the EC50 was found to be 0.121 µM.
As to `CC(C)(C#N)c1nnc(-c2ccc3c(c2)N(Cc2ccc(-c4ccc(C(F)(F)F)cc4)nc2)C(=O)[C@@H](N)CS3(=O)=O)o1` [Example 106], the “Emax IL2 (% activation)” value in test [1] came out at 121 % activation. Further, the EC50 in test [1] (Homo sapiens, T-cell) was found to be 3.84 µM; in test [2], 3.79 µM. In addition, in test [2], the “Emax proliferation (% activation)” value stood at 79 % activation.
For `N[C@H]1CS(=O)(=O)c2cc(F)c(-c3nnc(N4CCOC5(CC5)C4)o3)cc2N(Cc2ccc(-c3noc(C(F)(F)F)n3)cc2)C1=O` [Example 4, (3R)-3-amino-8-fluoro-7-[5-(4-oxa-7-azaspiro[2.5]octan-7-yl)-1,3,4-oxadiazol-2-yl]-1,1-dioxo-5-[[4-[5-(trifluoromethyl)-1,2,4-oxadiazol-3-yl]phenyl]methyl]-2,3-dihydro-1λ^6,5-benzothiazepin-4-one], in that order: 220 % activation, 0.207 µM, 0.0831 µM and 207 % activation.
Taken in the same sequence, the figures for `CN1CCCC(F)(c2nnc(-c3ccc4c(c3)N(Cc3ccc(-c5ccc(C(F)(F)F)cn5)cc3)C(=O)[C@@H](N)CS4(=O)=O)o2)C1` (stereo partly drawn) [Example 51, (3R)-3-amino-7-[5-(3-fluoro-1-methyl-3-piperidyl)-1,3,4-oxadiazol-2-yl]-1,1-dioxo-5-[[4-[5-(trifluoromethyl)-2-pyridyl]phenyl]methyl]-2,3-dihydro-1λ^6,5-benzothiazepin-4-one] were 135 % activation, 2.49 µM, 0.883 µM and 112 % activation.
Take `N[C@H]1CS(=O)(=O)c2cc(F)c(-c3nnc(N4CCC(F)(F)CC4)o3)cc2N(Cc2ccc(-c3noc(C(F)(F)F)n3)cc2)C1=O` [Example 5, (3R)-3-amino-7-[5-(4,4-difluoro-1-piperidyl)-1,3,4-oxadiazol-2-yl]-8-fluoro-1,1-dioxo-5-[[4-[5-(trifluoromethyl)-1,2,4-oxadiazol-3-yl]phenyl]methyl]-2,3-dihydro-1λ^6,5-benzothiazepin-4-one]: the “Emax IL2 (% activation)” value in test [1] is listed as 537 % activation. Further, the EC50 in test [1] (Homo sapiens, T-cell) came to 0.323 µM; in test [2] it was 0.12 µM. The “Emax proliferation (% activation)” value in test [2] amounted to 200 % activation.
